pIC50: −log10 of the molar value. Numbered stars: 1 amine (or outer) side, 2 acyl side, 3 side chain; on linkers, the order of the positions; unused ones are H or OH. Bridge positions count the residues as written; N and C are the ends. Square brackets hold non-standard residues; d marks the D form. Peptide text beside a SMILES is read from it. * marks the point of attachment. X42 = NCCNCC(CNCCN)C(=O)N[C@@H](CCC(=O)NCCCOCCOCCOCCCN*)C(=O)O; X12 = NCCNCC(CNCCN)C(=O)NCCCOCCOCCOCCCN*; X40 = NCCNCC(CNCCN)C(=O)NCCS(=O)(=O)CCN*; γGlu = O=C(O)[C@H](CCC(=O)[*:2])N[*:1]; mXylylene = c1cc(C[*:1])cc(C[*:2])c1; Suc = O=C(CCC(=O)[*:2])[*:1]; X18 = NCCNCC(CNCCN)C(=O)*; Nle = CCCC[C@H](N)C(=O)O

Assay [1] concerns the target T1, Human recombinant FAP (Homo sapiens, UniProt Q12884).
T1 sequence (Q12884 1-760): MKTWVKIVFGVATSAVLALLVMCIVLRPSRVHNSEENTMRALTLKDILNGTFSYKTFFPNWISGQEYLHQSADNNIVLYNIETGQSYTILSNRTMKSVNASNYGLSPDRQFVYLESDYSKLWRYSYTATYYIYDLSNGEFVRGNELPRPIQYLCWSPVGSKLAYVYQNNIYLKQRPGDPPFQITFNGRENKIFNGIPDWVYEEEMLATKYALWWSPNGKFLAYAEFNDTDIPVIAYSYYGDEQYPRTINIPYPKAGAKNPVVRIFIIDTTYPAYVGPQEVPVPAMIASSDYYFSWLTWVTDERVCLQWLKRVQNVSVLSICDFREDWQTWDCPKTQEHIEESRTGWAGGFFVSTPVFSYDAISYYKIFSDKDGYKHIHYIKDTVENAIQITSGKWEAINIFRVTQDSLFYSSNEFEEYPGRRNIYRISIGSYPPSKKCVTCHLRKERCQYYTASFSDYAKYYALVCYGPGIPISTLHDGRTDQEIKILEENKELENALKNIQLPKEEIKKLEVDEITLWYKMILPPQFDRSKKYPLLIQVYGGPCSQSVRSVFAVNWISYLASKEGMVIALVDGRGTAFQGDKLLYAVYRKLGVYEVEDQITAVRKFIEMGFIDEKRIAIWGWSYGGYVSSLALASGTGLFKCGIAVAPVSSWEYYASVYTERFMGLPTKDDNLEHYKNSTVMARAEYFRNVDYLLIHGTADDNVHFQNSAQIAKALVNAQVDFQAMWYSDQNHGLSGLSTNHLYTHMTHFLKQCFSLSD
Briefly: FRET-based FAP protease activity assay. The format is biochemical. Set-up: purchased R&D systems 3715-SE. The following applies: pIC50 Category (Activity), FRET substrate, 37° C.

For assay [2], the target named is T2, FAP-expressing human WI-38 fibroblasts (Homo sapiens, UniProt Q12884).
T2 construct: FAP-expressing human WI-38 fibroblasts (ECACC) were cultured in EMEM; host or cells: WI-38 human fibroblasts
T2 sequence (Q12884 1-760): T1 sequence (Q12884 1-760)
Briefly: Competitive FACS binding assay. The conditions noted are these: pIC50 Category (FACS), competition with 3 nM Cy5-labeled compound, 4° C., 1 hour. As for the experimental part:
Cells were analyzed in an Attune NxT flow cytometer. […]

A word on the pIC50: it is −log10 of the IC50, conventionally taken in molar units. `CCCC[C@H](NC(=O)CC[C@H](NC(=O)C(CNCCN)CNCCN)C(=O)O)C(=O)N[C@H]1CSCc2cccc(c2)CSC[C@@H](C(=O)O)NC(=O)[C@H](Cc2ccccc2)NC(=O)[C@H](CCC(=O)O)NC(=O)[C@H]([C@@H](C)O)NC(=O)[C@@H]2CCCN2C(=O)[C@@H]2CCCN2C1=O` [3BP-4230, N4Ac-gGlu-Nle-[Cys-(3MeBn)-Pro-Pro-Thr-Glu-Phe-Cys]-OH] ({X18-γGlu}-[Nle]CPPTEFC-OH; linker 2-8 via mXylylene): the negative-log IC50 (pIC50) in assay [1] and in assay [2] was less than 6.00 throughout.
For the compound `C[C@@H](O)[C@@H]1NC(=O)[C@@H]2CCCN2C(=O)[C@@H]2CCCN2C(=O)[C@@H](NC(=O)[C@H](CCC(=O)O)NC(=O)CCC(=O)NCCCOCCOCCOCCCNC(=O)C(CNCCN)CNCCN)CSCc2cccc(c2)CSC[C@@H](C(=O)O)NC(=O)[C@H](Cc2ccccc2)NC(=O)[C@H](CCC(=O)O)NC1=O` [3BP-4233, N4Ac-Ttds-Glu-[Cys-(3MeBn)-Pro-Pro-Thr-Glu-Phe-Cys]-OH] ({X12-Suc}-ECPPTEFC-OH; linker 2-8 via mXylylene), the values for the pIC50 in assay [1] and in assay [2] were less than 6.00 and 6.10 to 7.00, respectively.
Take `CCCC[C@H](NC(=O)CCC(=O)NCCS(=O)(=O)CCNC(=O)C(CNCCN)CNCCN)C(=O)N[C@H]1CSCc2cccc(c2)CSC[C@@H](C(=O)O)NC(=O)[C@H](Cc2ccccc2)NC(=O)[C@H](CCC(=O)O)NC(=O)[C@H]([C@@H](C)O)NC(=O)[C@@H]2CCCN2C(=O)[C@@H]2CCCN2C1=O` [3BP-4243, N4Ac-Efa-Nle-[Cys-(3MeBn)-Pro-Pro-Thr-Glu-Phe-Cys]-OH] ({X40-Suc}-[Nle]CPPTEFC-OH; linker 2-8 via mXylylene): the pIC50 in assay [1] and in assay [2] was 7.10 to 8.00 each time.
With `CCCC[C@H](NC(=O)CC[C@H](NC(=O)C(CNCCN)CNCCN)C(=O)O)C(=O)N[C@H]1CSCc2cccc(c2)CSC[C@@H](C(=O)O)NC(=O)[C@H](Cc2ccccc2)NC(=O)[C@H](CCC(N)=O)NC(=O)[C@H]([C@@H](C)O)NC(=O)[C@@H]2CCCN2C(=O)[C@@H]2CCCN2C1=O` [3BP-4244, N4Ac-gGlu-Nle-[Cys-(3MeBn)-Pro-Pro-Thr-Gln-Phe-Cys]-OH], the negative-log IC50 (pIC50) in assay [1] and in assay [2] was less than 6.00 throughout.
In the case of `CCCC[C@H](NC(=O)CCC(=O)NCCCOCCOCCOCCCNC(=O)CC[C@H](NC(=O)C(CNCCN)CNCCN)C(=O)O)C(=O)N[C@H]1CSCc2cccc(c2)CSC[C@@H](C(=O)O)NC(=O)[C@H](Cc2ccccc2)NC(=O)[C@H](CCC(=O)O)NC(=O)[C@H]([C@@H](C)O)NC(=O)[C@@H]2CCCN2C(=O)[C@@H]2CCCN2C1=O` [3BP-4245, N4Ac-gGlu-Ttds-Nle-[Cys-(3MeBn)-Pro-Pro-Thr-Gln-Phe-Cys]-OH] ({X42-Suc}-[Nle]CPPTEFC-OH; linker 2-8 via mXylylene), the pIC50 in assay [1] and in assay [2] was 7.10 to 8.00 throughout.
On to `CCCC[C@H](NC(=O)CCC(=O)NCCCOCCOCCOCCCNC(=O)[C@H](CCC(=O)NC[C@H](O)[C@@H](O)[C@H](O)[C@H](O)CO)NC(=O)[C@H](CCC(=O)NC[C@H](O)[C@@H](O)[C@H](O)[C@H](O)CO)NC(=O)C(CNCCN)CNCCN)C(=O)N[C@H]1CSCc2cccc(c2)CSC[C@@H](C(=O)O)NC(=O)[C@H](Cc2ccccc2)NC(=O)[C@H](CCC(=O)O)NC(=O)[C@H]([C@@H](C)O)NC(=O)[C@@H]2CCCN2C(=O)[C@@H]2CCCN2C1=O` [3BP-4266, N4Ac-Glu(AGLU)-Glu(AGLU)-Ttds-Nle-[Cys-(3MeBn)-Pro-Pro-Thr-Glu-Phe-Cys]-OH], for which the pIC50 in assay [1] and in assay [2] was 7.10 to 8.00 in each case.
For the compound `CCCCCC(=O)N[C@H]1CSCc2cc(CSCCNC(=O)CN3CCN4CCN(CC(=O)O)CCN(CC3)CC(=O)[O][Cu][O]C(=O)C4)cc(c2)CSC[C@@H](C(=O)O)NC(=O)[C@H](Cc2ccccc2)NC(=O)[C@H](CCC(N)=O)NC(=O)[C@H]([C@@H](C)O)NC(=O)[C@@H]2CCCN2C(=O)[C@@H]2CCCN2C1` [3BP-4293, Copper(II)-Complex of Hex-[Cys(tMeBn(DOTA-AET))-Pro-Pro-Thr-Gln-Phe-Cys]-OH], the pIC50 in assay [1] and in assay [2] was more than 8.00 each time.

Values taken from US20220315554A1, “COMPOUNDS COMPRISING A […] LIGAND AND USE THEREOF” (priority 2019, published 2022).
